pIC50: −log10 of the molar value.
Key:
CDK12/CycK = CDK12/CycK (Homo sapiens, UniProt Q9NYV4); assay: CDK12/CycK high ATP kinase assay (TR-FRET, 2 mM ATP); assay type: biochemical; conditions: 2 mM ATP (high ATP); median; read-out: CDK12/CyclinK, 2 mM ATP (high ATP), IC50-[mol/l] (median)
Outline: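 His-tagged human CDK12/CycK (~0.75 nM) pre-incubated 15 min with compound, then 60 min at 22 °C with 2 mM ATP and 1 µM biotinylated peptide (HEPES pH 7.5, 20 mM MgCl2). EDTA stop; phospho-Ser62 antibody/Eu anti-rabbit and streptavidin-XL665 TR-FRET, 665/620 nm ratio normalised to give IC50.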

[1] = test system: BRCA1 mRNA expression in MDA-MB-231 cells; assay: qRT-PCR assay: BRCA1 mRNA expression in MDA-MB-231; assay type: cell-based, human; conditions: Homo sapiens, MDA-MB-231, Inhibition of BRCA1 mRNA expression in MDA-MB-231 cells; median; read-out: RTqPCR-MDA-MB-231, IC50, BRCA1 (median)
Outline: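 Cells were seeded at 200,000 cells/well, left 24 h, then exposed continuously to test substances for 24 h. Total RNA (600 ng) was reverse-transcribed to cDNA and amplified by qPCR, and transcript levels were normalised to GAPDH housekeeping expression.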

[2] = target: T1, CDK12 (nuclear staining in CAL-120 cells) (Homo sapiens, UniProt Q9NYV4); assay: CDK12 nuclear protein level: immunofluorescence/high content analysis (CAL-120); assay type: cell-based; conditions: for DC50: CAL-120 cells, 24 h, immunofluorescence, 50% reduction of nuclear CDK12 staining intensity, median, read-out: CDK12 degradation IF, DC50- [mol/l] (median); for (IC50 CDK12 high ATP) to (Degradation DC50 CDK12) ratio: ratio of IC50 CDK12 high ATP kinase assay to DC50 CDK12 degradation (IF, CAL-120)
T1 construct: endogenous in cells; host or cells: CAL-120 human breast cancer cells (DSMZ ACC 459)
Outline: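 CAL-120 cells were treated with compound for 24 h at 37 °C, fixed with PFA and immunostained for CDK12. Nuclear CDK12 intensity was quantified by automated image analysis and normalized to DMSO and control. DC50 is the concentration giving 50% reduction of nuclear staining.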

T1 sequence (Q9NYV4 whole entry): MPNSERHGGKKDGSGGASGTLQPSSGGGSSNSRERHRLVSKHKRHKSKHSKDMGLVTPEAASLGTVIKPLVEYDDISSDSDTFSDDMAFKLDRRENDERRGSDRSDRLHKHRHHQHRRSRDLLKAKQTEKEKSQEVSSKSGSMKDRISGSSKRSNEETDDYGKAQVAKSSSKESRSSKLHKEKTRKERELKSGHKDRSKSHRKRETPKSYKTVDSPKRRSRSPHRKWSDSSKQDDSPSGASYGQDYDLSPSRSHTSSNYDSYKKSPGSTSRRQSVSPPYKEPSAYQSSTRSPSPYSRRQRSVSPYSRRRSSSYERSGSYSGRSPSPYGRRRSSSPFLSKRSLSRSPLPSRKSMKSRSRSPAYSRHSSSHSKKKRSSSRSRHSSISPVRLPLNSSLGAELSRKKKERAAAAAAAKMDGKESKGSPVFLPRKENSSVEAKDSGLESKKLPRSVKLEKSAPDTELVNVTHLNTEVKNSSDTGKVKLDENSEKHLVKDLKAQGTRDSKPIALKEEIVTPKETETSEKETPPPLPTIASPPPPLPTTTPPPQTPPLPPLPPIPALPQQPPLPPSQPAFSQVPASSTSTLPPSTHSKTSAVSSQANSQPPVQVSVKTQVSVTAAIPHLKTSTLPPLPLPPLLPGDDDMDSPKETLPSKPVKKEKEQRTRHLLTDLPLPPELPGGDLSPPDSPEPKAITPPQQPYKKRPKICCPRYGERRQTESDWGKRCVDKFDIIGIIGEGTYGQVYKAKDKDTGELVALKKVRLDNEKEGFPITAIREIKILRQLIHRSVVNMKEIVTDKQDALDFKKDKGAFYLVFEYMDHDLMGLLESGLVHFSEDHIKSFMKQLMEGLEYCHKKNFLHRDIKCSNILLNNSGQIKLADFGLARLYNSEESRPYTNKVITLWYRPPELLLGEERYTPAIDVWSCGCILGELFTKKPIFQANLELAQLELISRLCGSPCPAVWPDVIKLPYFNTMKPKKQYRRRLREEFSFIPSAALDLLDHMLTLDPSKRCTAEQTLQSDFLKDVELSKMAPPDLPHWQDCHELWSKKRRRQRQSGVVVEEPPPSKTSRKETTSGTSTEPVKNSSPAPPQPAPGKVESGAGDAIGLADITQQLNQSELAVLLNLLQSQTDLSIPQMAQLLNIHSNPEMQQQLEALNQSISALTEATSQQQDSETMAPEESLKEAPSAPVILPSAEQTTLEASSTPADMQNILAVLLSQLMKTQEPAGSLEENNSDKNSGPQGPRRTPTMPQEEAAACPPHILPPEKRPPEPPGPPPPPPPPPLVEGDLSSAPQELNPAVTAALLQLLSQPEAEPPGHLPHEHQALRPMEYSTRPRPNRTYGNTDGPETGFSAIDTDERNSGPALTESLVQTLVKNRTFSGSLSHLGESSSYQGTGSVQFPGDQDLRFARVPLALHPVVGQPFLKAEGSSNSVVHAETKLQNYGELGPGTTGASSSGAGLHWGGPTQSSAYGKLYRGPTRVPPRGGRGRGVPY
T1 sequence (O75909 whole entry partner): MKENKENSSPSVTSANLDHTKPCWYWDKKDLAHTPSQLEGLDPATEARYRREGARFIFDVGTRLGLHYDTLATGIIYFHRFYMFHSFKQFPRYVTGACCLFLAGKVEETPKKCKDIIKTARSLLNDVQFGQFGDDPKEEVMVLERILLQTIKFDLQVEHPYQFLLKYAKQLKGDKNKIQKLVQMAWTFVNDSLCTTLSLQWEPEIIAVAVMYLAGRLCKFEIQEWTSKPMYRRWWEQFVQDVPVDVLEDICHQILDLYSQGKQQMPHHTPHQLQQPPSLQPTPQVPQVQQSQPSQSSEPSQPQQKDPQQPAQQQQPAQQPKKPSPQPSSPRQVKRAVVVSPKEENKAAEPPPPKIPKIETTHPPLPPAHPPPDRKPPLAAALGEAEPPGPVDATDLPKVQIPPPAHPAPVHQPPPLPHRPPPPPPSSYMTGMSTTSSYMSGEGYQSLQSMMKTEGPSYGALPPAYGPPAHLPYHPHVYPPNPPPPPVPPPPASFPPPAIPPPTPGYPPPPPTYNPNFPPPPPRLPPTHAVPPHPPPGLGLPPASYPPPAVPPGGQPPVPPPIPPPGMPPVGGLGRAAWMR
Chain of CDK12/CycK (Q9NYV4 with tags, fused parts or gaps): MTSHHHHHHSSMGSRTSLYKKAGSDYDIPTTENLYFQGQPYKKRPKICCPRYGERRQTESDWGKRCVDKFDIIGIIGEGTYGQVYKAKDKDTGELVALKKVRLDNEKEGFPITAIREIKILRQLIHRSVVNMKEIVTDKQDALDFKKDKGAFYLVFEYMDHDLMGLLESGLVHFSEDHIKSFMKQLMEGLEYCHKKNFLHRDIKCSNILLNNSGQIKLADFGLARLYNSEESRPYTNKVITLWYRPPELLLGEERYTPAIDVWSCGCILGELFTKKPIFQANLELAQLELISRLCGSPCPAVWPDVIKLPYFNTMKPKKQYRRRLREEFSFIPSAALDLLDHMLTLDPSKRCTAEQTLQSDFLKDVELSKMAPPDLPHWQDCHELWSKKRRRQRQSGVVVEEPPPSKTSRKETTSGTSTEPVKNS
Chain of CDK12/CycK (O75909 1-300 partner limits assumed): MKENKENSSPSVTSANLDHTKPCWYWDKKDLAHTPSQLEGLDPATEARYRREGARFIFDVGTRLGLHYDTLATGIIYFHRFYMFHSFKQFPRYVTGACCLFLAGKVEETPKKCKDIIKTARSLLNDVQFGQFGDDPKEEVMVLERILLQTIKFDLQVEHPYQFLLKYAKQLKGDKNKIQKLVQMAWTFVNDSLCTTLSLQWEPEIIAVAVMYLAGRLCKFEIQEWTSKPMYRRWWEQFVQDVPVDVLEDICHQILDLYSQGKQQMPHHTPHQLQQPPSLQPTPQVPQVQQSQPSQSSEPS

SMILES | pIC50 (CDK12/CycK) | pIC50 [1] | DC50 [2] | (IC50 CDK12 high ATP) to (Degradation DC50 CDK12) ratio [2]
FC(F)(F)c1cnn2c(NCc3nc4ccccc4[nH]3)nc(N3CCOCC3)nc12 [Example 241, N-[(1H-benzimidazol-2-yl)methyl]-2-(morpholin-4-yl)-8-(trifluoromethyl) pyrazolo[1,5-a][1,3,5]triazin-4-amine] | 6.09 | 7.76 | 4.34 nM | 186
CC1(C)CN(c2nc(NCc3nc4ccccc4[nH]3)n3ncc(Br)c3n2)CCN1 [Example 216, N-[(1H-benzimidazol-2-yl)methyl]-8-bromo-2-(3,3-dimethylpiperazin-1-yl)pyrazolo[1,5-a][1,3,5]triazin-4-amine] | < 5.34 | 8.13 | 3.31 nM | >1386
CN1CCN(c2nc(NCc3nc4ccccc4[nH]3)n3ncc(-c4ccncc4)c3n2)CC1 [Example 242, N-[(1H-benzimidazol-2-yl)methyl]-2-(4-methylpiperazin-1-yl)-8-(pyridin-4-yl)pyrazolo[1,5-a][1,3,5]triazin-4-amine] | < 4.70 | 6.29 | 107 nM | >188
C[C@@H]1CN(c2nc(NCc3nc4c(F)c(F)ccc4[nH]3)n3ncc(C4CC4)c3n2)C[C@H](C)N1 [Example 170, 8-cyclopropyl-N-[(4,5-difluoro-1H-benzimidazol-2-yl)methyl]-2-[(3R,5S)-3,5-dimethylpiperazin-1-yl]pyrazolo[1,5-a][1,3,5]triazin-4-amine] | 5.52 | 9.38 | 0.574 nM | 5303
CN(C)C1CCN(c2nc(NCc3nc4ccccc4[nH]3)n3ncc(Br)c3n2)CC1 [Example 201, N-[(1H-benzimidazol-2-yl)methyl]-8-bromo-2-[4-(dimethylamino)piperidin-1-yl]pyrazolo[1,5-a][1,3,5]triazin-4-amine] | < 4.70 | 6.84 | 61.3 nM | >326
CC(C)(O)CNc1nc(NCc2nc3ccccc3[nH]2)n2ncc(Br)c2n1 [Example 229, 1-[(4-{[(1H-benzimidazol-2-yl)methyl]amino}-8-bromopyrazolo[1,5-a][1,3,5]triazin-2-yl)amino]-2-methylpropan-2-ol] | 5.26 | 7.97 | 6.38 nM | 862

Further lines, results first:

pIC50 (CDK12/CycK) | pIC50 [1] | DC50 [2] | (IC50 CDK12 high ATP) to (Degradation DC50 CDK12) ratio [2] | SMILES
< 4.78 | 7.06 | 57.6 nM | >287 | CO[C@@H]1CCN(c2nc(NCc3nc4ccccc4[nH]3)n3ncc(Br)c3n2)C1 [Example 223, N-[(1H-benzimidazol-2-yl)methyl]-8-bromo-2-[(3R)-3-methoxypyrrolidin-1-yl]pyrazolo[1,5-a][1,3,5]triazin-4-amine]
< 4.70 | 7.66 | 4.59 nM | >4361 | CN1CC[C@H]2CN(c3nc(NCc4nc5ccccc5[nH]4)n4ncc(Br)c4n3)C[C@H]21 [Example 179, N-[(1H-benzimidazol-2-yl)methyl]-8-bromo-2-[(3aS,6aS)-1-methylhexahydropyrrolo[3,4-b]pyrrol-5 (1H)-yl]pyrazolo[1,5-a][1,3,5]triazin-4-amine]
5.07 | 8.69 | 0.56 nM | 15180 | Cc1ccc2[nH]c(CNc3nc(N4C[C@H]5C[C@@H]4CO5)nc4c(Br)cnn34)nc2c1 [Example 192, 8-bromo-N-[(5-methyl-1H-benzimidazol-2-yl)methyl]-2-[(1R,4R)-2-oxa-5-azabicyclo[2.2.1]heptan-5-yl]pyrazolo[1,5-a][1,3,5]triazin-4-amine]
